From PMC8262356, “SLC26A6-selective inhibitor identified in a small-molecule screen blocks fluid absorption in small intestine” (JCI Insight, 2021)

Key:
slc26a4 = target: T1, slc26a4 (Mus musculus, UniProt Q9R155); test: Selectivity: Cl-/I- exchange in FRT cells coexpressing YFP and slc26a4; assay type: cell-based; details: 25 μM
T1 construct: expressed in transfected cells; host or cells: FRT cells coexpressing YFP
T1 sequence (Q9R155 1-780): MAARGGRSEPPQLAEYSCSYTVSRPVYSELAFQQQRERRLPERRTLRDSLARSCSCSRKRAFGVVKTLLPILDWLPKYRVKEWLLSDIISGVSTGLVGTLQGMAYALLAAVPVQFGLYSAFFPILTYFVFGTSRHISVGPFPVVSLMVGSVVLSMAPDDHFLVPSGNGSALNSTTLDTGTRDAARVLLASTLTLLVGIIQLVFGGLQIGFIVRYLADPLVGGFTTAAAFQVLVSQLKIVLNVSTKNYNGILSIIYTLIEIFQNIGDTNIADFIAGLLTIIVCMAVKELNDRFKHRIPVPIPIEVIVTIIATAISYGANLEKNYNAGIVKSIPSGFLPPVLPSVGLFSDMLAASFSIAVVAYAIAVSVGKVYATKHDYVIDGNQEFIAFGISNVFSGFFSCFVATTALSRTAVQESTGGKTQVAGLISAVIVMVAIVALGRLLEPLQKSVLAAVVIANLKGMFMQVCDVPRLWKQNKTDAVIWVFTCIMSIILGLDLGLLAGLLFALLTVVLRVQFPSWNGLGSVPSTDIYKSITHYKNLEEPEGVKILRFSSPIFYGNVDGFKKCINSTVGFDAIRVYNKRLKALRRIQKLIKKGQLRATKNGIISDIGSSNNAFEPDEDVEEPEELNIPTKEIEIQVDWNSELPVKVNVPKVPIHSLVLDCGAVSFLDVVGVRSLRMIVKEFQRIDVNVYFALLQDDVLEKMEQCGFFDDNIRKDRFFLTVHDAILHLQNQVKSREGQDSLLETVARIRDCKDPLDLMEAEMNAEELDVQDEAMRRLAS
Procedure: PAT1inh-B01 selectivity was studied by testing its effects on related SLC26A family anion transporters and the Cl^– channel TMEM16A. These measurements used a similar Cl^–/I^– exchange protocol, but FRT cells separately expressed each of the SLC26A family members or TMEM16A. […] PAT1inh-B01 selectivity was also tested by short-circuit current (Isc) in well-differentiated human bronchial epithelial (HBE) cells, which have a complex ion transport mechanism that includes cystic fibrosis transmembrane conductance regulator (CFTR), epithelial Na^+ channel (ENaC), and Ca^+2-activated chloride channels (CaCCs) ([13]). […] Potential PAT1inh-B01 cytotoxicity was studied in FRT cells.
Figure 3 PAT1inh-B01 selectivity and cytotoxicity. […] Cl^–/I^– exchange or I^– influx measured in FRT cells coexpressing YFP and SLC26A isoforms or TMEM16A, with data shown for 25 μM PAT1inh-B01, DMSO vehicle control, and 500 μM niflumic acid (positive control for SLC26A transporters) or 10 μM TMinh-23 (positive control for TMEM16A). […] (C) (left) Short-circuit current (Isc) in well-differentiated HBE cells measured in the absence (top) and presence (bottom) of 25 μM PAT1inh-B01. […]
YFP-based cellular assays of slc26a3, slc26a4, SLC26A9, and TMEM16A function were performed as described previously ([7]). […] The activities of ENaC, CFTR, and CaCC were determined using well-differentiated HBE cells as described previously ([13]). […]

[1] = system: ileal closed loops in cystic fibrosis (CF) mice (homozygous F508del); test: Closed ileal loop fluid absorption in CF mice; assay type: in vivo, mouse; details: 30 μM luminal
Procedure: For fluid absorption studies in small intestine, mice were given free access to 5% dextrose in water but not solid food for 24 hours before experiments. Closed midjejunal and ileal loops were prepared and isolated as described previously ([29]). Mice were anesthetized with isoflurane, and body temperature was maintained during surgery at 36°C–38°C using a heating pad. A small abdominal incision was made to expose small intestine for isolation of 3–4 closed small intestinal loops (jejunum or ileum, length 2–3 cm) with sutures. Loops were injected with 100 μL PBS (pH 7.4, 137 mM NaCl, 2.7 mM KCl, 8 mM Na2HPO4, 1.8 mM KH2PO4, 1 mM CaCl2, 0.5 mM MgCl2) containing 30 μM PAT1inh-B01, 10 μM DRAinh-A270, or 10 μM tenapanor (MedChemExpress) (or vehicle, 0.1% DMSO in PBS). In some experiments, 30 μM PAT1inh-B01 and 10 μM DRAinh-A270 were used together. In some experiments to rule out effects of sodium-dependent phosphate transport, the loop lumen contained HEPES-buffered saline (pH 7.4, 137 mM NaCl, 4.5 mM KCl, 10 mM HEPES, 1 mM CaCl2, 0.5 mM MgCl2). The abdominal incision was closed with sutures, and mice were allowed to recover from anesthesia. Intestinal loops were removed at 0 and 30 minutes (in separate mice), and loop length and weight were measured to quantify fluid absorption. In parallel experiments, CF mice were used and loop studies were done as described above. In some experiments, loop fluid was emptied with a syringe, and pH was measured immediately using AB15 pH meter after brief centrifugation at 2000 g for 5 minutes at 4°C.

Compound: Cc1c(Br)c(C(F)(F)F)nn1CC(=O)N1CCc2nc3cc(-c4ccccc4)[nH]n3c(=O)c2C1 [PAT1inh-B01]
- inhibition of slc26a4 (slc26a4): did not significantly inhibit
- effect on fluid absorption from ilea of CF mice [1]: completely blocked
